Active and inactive are the calls of the source. No cut-off for these calls is given here.
Tests used:
[1] = target: Kappa-type opioid receptor (Homo sapiens) (UniProt P41145); settings: Compound concentration 10.0 uM
[2] = target: Muscarinic acetylcholine receptor M5 (Homo sapiens) (UniProt P08912); settings: Compound concentration 10.0 uM
[3] = target: T1, 5-hydroxytryptamine receptor 2C (Homo sapiens) (UniProt P28335); settings: Compound concentration 10.0 uM
T1 sequence (whole entry): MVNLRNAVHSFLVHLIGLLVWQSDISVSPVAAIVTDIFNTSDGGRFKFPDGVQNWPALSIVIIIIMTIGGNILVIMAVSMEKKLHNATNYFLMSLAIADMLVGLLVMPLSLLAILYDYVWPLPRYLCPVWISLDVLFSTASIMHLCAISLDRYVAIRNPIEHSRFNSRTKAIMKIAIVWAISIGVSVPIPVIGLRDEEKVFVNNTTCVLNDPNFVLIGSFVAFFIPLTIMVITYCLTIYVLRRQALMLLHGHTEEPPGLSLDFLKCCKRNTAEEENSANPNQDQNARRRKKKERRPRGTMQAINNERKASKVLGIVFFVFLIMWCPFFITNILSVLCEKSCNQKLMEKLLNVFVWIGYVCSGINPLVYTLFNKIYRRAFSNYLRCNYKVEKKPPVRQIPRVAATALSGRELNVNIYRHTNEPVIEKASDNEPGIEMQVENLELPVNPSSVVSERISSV

[4] = target: D(3) dopamine receptor (Homo sapiens) (UniProt P35462); settings: Compound concentration 10.0 uM
Chain of D(3) dopamine receptor (Homo sapiens) (P35462 whole entry): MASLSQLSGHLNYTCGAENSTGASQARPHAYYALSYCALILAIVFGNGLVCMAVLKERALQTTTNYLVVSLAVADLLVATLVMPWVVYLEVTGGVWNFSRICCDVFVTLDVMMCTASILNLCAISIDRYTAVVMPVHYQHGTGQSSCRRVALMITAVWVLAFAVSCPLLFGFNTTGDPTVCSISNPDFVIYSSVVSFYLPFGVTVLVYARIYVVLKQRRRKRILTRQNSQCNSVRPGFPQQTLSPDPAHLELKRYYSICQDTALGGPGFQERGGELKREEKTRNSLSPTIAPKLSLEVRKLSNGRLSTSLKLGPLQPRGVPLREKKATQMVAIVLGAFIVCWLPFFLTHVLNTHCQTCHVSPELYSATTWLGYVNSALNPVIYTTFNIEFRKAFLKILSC

[5] = target: Beta-2 adrenergic receptor (Homo sapiens) (UniProt P07550); settings: Compound concentration 10.0 uM
[6] = target: T2, Alpha-2C adrenergic receptor (Homo sapiens) (UniProt P18825); settings: Compound concentration 10.0 uM
T2 sequence (whole entry): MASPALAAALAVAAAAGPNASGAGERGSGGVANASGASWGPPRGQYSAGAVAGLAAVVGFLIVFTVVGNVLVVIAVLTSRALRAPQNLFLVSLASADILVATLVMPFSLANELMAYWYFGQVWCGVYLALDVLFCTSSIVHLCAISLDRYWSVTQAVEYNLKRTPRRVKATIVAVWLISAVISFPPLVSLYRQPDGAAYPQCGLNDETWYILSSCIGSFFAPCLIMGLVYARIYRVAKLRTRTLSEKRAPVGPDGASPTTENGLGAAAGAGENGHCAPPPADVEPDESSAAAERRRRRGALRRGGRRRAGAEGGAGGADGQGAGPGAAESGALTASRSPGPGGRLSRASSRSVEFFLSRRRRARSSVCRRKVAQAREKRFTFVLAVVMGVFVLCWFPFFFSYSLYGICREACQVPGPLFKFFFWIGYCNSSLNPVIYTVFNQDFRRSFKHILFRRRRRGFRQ

[7] = target: GABA-A receptor; anion channel (Rattus norvegicus) (UniProt O09028+P15431+P18506+P18508+P19969+P20236+P23574+P23576+P28471+P28473+P30191+P62813+P63079+P63138+Q91ZM7+Q9ES14); settings: Compound concentration 10.0 uM
Histamine H2 receptor = Histamine H2 receptor (Homo sapiens, UniProt P25021); settings: Compound concentration 10.0 uM
[8] = target: Transient receptor potential cation channel subfamily V member 4 (Homo sapiens, UniProt Q9HBA0); assay: TRP selectivity screen (TRPV4)
[9] = target: Transient receptor potential cation channel subfamily V member 1 (Homo sapiens, UniProt Q8NER1); assay: TRP selectivity screen (TRPV1)
Chain of Transient receptor potential cation channel subfamily V member 1 (Q8NER1 whole entry): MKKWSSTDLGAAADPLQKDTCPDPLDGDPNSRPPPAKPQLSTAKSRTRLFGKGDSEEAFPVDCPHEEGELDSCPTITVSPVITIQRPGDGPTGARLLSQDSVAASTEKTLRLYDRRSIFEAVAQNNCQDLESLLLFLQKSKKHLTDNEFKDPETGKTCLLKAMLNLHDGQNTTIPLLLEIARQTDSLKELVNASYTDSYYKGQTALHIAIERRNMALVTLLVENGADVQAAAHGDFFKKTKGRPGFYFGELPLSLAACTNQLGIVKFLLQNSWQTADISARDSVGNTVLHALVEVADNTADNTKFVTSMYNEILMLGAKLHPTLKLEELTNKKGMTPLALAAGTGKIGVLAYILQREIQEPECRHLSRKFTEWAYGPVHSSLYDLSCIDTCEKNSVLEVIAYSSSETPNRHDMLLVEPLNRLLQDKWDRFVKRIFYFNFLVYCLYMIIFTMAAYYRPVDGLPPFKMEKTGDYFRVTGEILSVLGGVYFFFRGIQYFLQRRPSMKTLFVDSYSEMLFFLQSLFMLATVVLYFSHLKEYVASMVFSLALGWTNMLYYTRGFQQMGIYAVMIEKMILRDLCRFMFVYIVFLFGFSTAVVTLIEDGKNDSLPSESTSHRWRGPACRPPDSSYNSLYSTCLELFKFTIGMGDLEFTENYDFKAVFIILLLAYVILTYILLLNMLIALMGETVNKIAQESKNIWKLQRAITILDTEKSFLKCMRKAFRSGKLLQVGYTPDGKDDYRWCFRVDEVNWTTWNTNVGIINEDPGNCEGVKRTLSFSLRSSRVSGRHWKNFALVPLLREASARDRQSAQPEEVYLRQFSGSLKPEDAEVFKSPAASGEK

[10] = target: Muscarinic acetylcholine receptor M3 (Homo sapiens) (UniProt P20309); settings: Compound concentration 10.0 uM
Chain of Muscarinic acetylcholine receptor M3 (Homo sapiens) (P20309 whole entry, looked up): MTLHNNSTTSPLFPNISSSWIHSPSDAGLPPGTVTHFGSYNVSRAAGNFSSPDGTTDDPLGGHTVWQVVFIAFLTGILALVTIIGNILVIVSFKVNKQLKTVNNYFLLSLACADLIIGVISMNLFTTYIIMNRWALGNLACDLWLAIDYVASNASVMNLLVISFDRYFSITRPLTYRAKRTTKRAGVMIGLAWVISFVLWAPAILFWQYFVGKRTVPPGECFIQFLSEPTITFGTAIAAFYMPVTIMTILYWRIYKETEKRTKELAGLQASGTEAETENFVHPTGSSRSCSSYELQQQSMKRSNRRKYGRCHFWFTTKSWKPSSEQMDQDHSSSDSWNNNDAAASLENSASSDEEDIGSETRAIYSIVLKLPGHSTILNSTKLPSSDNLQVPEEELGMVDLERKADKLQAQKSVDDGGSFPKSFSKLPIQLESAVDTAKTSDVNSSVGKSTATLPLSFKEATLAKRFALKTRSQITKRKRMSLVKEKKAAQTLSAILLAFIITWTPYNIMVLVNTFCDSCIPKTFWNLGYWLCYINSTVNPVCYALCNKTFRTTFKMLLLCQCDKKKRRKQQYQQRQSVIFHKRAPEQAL

[11] = target: Transient receptor potential cation channel subfamily A member 1 (Homo sapiens, UniProt O75762); assay: FLIPR Ca2+ assay (human […])
Chain of Transient receptor potential cation channel subfamily A member 1 (Homo sapiens, UniProt O75762) (O75762 whole entry): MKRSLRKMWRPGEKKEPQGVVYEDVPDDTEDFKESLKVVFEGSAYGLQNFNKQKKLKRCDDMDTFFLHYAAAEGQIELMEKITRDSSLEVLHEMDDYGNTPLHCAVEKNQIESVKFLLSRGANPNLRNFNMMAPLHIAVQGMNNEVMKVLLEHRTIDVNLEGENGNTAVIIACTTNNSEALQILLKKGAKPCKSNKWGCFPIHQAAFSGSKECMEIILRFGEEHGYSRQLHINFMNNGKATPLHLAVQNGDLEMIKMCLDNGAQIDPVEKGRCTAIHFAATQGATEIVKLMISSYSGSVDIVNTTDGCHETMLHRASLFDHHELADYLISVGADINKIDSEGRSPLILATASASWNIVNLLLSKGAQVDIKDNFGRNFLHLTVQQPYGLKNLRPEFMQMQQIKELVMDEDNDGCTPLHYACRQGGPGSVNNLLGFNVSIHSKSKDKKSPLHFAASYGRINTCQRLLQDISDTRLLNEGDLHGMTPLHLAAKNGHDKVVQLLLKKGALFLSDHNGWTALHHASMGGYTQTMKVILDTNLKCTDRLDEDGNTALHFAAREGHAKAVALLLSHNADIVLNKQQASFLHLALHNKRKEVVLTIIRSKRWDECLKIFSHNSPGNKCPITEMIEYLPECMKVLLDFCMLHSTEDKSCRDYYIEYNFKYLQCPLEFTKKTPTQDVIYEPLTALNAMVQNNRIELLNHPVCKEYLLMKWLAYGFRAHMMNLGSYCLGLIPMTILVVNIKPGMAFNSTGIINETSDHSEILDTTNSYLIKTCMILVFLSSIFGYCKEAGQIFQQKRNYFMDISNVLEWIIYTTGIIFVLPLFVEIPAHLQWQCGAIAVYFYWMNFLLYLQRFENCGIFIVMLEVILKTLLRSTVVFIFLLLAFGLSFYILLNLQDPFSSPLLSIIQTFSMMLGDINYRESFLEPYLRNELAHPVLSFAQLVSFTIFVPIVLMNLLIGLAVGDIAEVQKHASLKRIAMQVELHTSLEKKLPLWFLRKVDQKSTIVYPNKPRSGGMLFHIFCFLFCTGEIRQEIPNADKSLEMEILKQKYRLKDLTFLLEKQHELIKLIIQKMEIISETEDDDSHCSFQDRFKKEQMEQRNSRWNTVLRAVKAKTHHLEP

[12] = target: T3, Alpha-1A adrenergic receptor (Homo sapiens) (UniProt P35348); settings: Compound concentration 10.0 uM
T3 sequence (whole entry): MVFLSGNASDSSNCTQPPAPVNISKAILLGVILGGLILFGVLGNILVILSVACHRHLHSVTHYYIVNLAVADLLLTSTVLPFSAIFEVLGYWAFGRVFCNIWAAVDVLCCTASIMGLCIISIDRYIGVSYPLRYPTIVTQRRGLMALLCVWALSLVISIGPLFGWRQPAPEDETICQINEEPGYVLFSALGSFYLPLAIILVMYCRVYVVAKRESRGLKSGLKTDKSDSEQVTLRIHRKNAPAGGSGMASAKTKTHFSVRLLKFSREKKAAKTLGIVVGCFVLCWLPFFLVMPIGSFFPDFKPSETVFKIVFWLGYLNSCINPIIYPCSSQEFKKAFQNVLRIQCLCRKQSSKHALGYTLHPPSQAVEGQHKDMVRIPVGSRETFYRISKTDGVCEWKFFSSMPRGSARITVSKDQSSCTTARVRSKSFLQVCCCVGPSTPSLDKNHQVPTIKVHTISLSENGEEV

[13] = target: Short transient receptor potential channel 6 (Homo sapiens, UniProt Q9Y210); assay: TRP selectivity screen (TRPC6)
[14] = target: Short transient receptor potential channel 5 (Homo sapiens, UniProt Q9UL62); assay: TRP selectivity screen (TRPC5)
[15] = target: Transient receptor potential cation channel subfamily A member 1 (Rattus norvegicus, UniProt Q6RI86); assay: FLIPR Ca2+ assay (rat TRPA1)
Chain of Transient receptor potential cation channel subfamily A member 1 (Rattus norvegicus, UniProt Q6RI86) (Q6RI86 whole entry): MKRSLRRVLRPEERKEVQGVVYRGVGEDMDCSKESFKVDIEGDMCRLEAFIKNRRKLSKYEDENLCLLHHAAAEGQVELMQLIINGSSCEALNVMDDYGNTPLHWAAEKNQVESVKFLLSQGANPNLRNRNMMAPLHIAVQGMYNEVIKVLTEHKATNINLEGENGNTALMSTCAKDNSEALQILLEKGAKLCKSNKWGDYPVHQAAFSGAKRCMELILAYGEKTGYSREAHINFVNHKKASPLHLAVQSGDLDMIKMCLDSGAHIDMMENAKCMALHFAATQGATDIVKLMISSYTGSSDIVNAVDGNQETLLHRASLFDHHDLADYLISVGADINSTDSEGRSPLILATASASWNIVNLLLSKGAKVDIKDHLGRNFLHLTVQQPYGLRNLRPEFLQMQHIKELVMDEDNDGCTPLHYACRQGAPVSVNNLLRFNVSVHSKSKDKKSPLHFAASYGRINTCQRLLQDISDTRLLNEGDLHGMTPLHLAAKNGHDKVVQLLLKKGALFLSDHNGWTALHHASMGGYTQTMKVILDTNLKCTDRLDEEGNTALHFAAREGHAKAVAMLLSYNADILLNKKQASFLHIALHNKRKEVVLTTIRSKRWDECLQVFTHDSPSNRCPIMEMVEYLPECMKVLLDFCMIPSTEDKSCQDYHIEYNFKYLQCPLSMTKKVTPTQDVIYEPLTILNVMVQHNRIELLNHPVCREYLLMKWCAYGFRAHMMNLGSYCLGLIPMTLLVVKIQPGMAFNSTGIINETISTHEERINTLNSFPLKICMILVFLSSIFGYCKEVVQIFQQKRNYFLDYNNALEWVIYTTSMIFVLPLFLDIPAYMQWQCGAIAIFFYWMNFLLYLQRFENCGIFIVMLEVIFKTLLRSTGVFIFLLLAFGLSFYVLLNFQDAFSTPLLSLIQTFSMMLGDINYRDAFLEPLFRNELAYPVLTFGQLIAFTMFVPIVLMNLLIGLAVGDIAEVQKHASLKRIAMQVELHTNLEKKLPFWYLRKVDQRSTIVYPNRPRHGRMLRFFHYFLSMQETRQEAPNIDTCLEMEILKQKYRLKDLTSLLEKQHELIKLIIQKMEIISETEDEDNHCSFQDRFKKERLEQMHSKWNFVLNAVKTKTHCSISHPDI

[16] = target: Delta-type opioid receptor (Homo sapiens) (UniProt P41143); settings: Compound concentration 10.0 uM
[17] = target: 5-hydroxytryptamine receptor 3A (Homo sapiens) (UniProt P46098); settings: Compound concentration 10.0 uM
[18] = target: Histamine H1 receptor (Homo sapiens) (UniProt P35367); settings: Compound concentration 10.0 uM
[19] = target: Alpha-1D adrenergic receptor (Homo sapiens) (UniProt P25100); settings: Compound concentration 10.0 uM
Chain of Alpha-1D adrenergic receptor (Homo sapiens) (P25100 whole entry): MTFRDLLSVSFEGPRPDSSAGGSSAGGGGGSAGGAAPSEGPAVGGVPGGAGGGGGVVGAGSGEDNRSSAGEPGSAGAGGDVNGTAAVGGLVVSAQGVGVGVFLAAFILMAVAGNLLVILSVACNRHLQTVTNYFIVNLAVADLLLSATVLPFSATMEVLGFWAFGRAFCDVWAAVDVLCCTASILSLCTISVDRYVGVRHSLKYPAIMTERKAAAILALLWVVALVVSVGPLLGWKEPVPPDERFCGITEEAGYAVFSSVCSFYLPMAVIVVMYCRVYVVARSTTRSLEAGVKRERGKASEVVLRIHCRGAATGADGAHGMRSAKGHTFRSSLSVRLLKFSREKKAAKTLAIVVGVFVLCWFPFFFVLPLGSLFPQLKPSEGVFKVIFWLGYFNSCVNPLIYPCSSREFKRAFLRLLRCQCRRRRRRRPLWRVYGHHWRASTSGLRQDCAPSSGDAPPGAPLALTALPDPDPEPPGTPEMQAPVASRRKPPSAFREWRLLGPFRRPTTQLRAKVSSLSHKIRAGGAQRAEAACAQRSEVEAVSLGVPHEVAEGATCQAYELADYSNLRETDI

Chain of Kappa-type opioid receptor (Homo sapiens) (P41145 whole entry): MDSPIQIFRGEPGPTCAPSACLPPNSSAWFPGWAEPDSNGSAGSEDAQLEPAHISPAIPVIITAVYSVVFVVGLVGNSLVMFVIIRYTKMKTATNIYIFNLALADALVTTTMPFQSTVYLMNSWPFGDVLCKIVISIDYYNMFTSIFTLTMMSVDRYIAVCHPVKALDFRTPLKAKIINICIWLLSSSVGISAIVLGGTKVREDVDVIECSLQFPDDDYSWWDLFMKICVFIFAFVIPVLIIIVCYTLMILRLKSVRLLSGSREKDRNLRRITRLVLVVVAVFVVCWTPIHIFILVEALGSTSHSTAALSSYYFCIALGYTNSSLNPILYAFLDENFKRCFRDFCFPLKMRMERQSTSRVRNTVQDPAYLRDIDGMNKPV

| Structure (SMILES) | inhibition [1] [%] | inhibition [2] [%] | inhibition [3] [%] | inhibition [4] [%] | inhibition [5] [%] | inhibition [6] [%] | inhibition [7] [%] | inhibition (Histamine H2 receptor) [%] | IC50 [8] | IC50 [9] | inhibition [10] [%] | IC50 [11] | inhibition [12] [%] | IC50 [13] | IC50 [14] | IC50 [15] | inhibition [16] [%] | inhibition [17] [%] | inhibition [18] [%] | inhibition [19] [%] |
| --- | --- | --- | --- | --- | --- | --- | --- | --- | --- | --- | --- | --- | --- | --- | --- | --- | --- | --- | --- | --- |
| O[C@]1(C(F)(F)F)CCCC[C@H]1Nc1ccc(F)cc1 [BAY-390] | 9.94 | 10.4 | 23.4 | -6.61 | 7.94 | 4.19 | 4.57 | -1.07 | > 25 µM (not active) | > 25 µM (not active) | 4.73 | 0.016 µM (active) | -8.22 | > 25 µM (not active) | 5.6 µM (not active) | 0.063 µM (active) | 21.4 | 39 | 25.7 | -2.73 |
| COc1cc(N[C@@H]2CCCC[C@]2(O)C(F)(F)F)ccc1F [BAY-9897] | 10.5 | -5.5 | -0.76 | -0.75 | 22.2 | -3.92 | 5.42 | 89 | > 25 µM (not active) | > 25 µM (not active) | 25.6 | > 25 µM (not active) | 2.69 | > 30 µM (not active) | 10 µM (not active) | > 25 µM (not active) | 14.4 | 11.6 | -8.03 | -4.64 |

— ChEMBL document CHEMBL4507328, “Data for DCP probe BAY-390” (2021)
